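48-hour exposure; five concentrations; linearly interpolated endpoints. The concentration for 50% growth inhibition is given as GI50.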 The source made the active and inactive calls. Rule as the data show it: active = GI50 up to about 1.1 µM and inactive = higher.
Legend:
Experiment in all cases: NCI anticancer screen, dose series, 48 h
OVCAR-5 = tested on: OVCAR-5
SNB-19 = tested on: SNB-19
UACC-257 = tested on: UACC-257
Hs-578T = tested on: Hs-578T
U-251 = tested on: U-251
SW-620 = tested on: SW-620
IGROV-1 = tested on: IGROV-1
RXF 393 = tested on: RXF 393
SK-MEL-28 = tested on: SK-MEL-28
UO-31 = tested on: UO-31
NCI/ADR-RES = tested on: NCI/ADR-RES
SF-268 = tested on: SF-268
MDA-MB-435 = tested on: MDA-MB-435
A498 = tested on: A498
MOLT-4 = tested on: MOLT-4
ACHN = tested on: ACHN
DU-145 = tested on: DU-145
SK-MEL-5 = tested on: SK-MEL-5
HCT-15 = tested on: HCT-15
K562 = tested on: K562
HOP-92 = tested on: HOP-92
CAKI-1 = tested on: CAKI-1
SK-OV-3 = tested on: SK-OV-3
NCI-H460 = tested on: NCI-H460
UACC-62 = tested on: UACC-62
COLO 205 = tested on: COLO 205
HCT-116 = tested on: HCT-116
MDA-N = tested on: MDA-N
NCI-H522 = tested on: NCI-H522
NCI-H226 = tested on: NCI-H226
M14 = tested on: M14
MDA-MB-231 = tested on: MDA-MB-231
SF-295 = tested on: SF-295
HT-29 = tested on: HT-29
OVCAR-3 = tested on: OVCAR-3
BT-549 = tested on: BT-549
MCF7 = tested on: MCF7
NCI-H23 = tested on: NCI-H23
SF-539 = tested on: SF-539
Malme-3M = tested on: Malme-3M
LOX IMVI = tested on: LOX IMVI
786-0 = tested on: 786-0
A549 = tested on: A549
SR = tested on: SR
HOP-62 = tested on: HOP-62
SNB-75 = tested on: SNB-75
OVCAR-8 = tested on: OVCAR-8
CCRF-CEM = tested on: CCRF-CEM
PC-3 = tested on: PC-3
KM12 = tested on: KM12
EKVX = tested on: EKVX
HL-60 = tested on: HL-60
RPMI-8226 = tested on: RPMI-8226
TK-10 = tested on: TK-10
HCC 2998 = tested on: HCC 2998

For `O=P(O)(O)C(NCC(O)CN1CCOCC1)P(=O)(O)O` (stereo not given), the GI50 (OVCAR-5) was > 100 µM (inactive), the GI50 (SNB-19) was > 100 µM (inactive) and the GI50 (UACC-257) was > 100 µM (inactive). The GI50 (Hs-578T) was 10.2 µM (inactive), the GI50 (U-251) was > 100 µM (inactive) and the GI50 (SW-620) was > 100 µM (inactive). For the same molecule, the GI50 (IGROV-1) was > 100 µM (inactive), the GI50 (RXF 393) was > 100 µM (inactive) and the GI50 (SK-MEL-28) was > 100 µM (inactive). The GI50 (UO-31) was > 100 µM (inactive), the GI50 (NCI/ADR-RES) was > 100 µM (inactive) and the GI50 (SF-268) was > 100 µM (inactive). The GI50 (MDA-MB-435) was > 100 µM (inactive), the GI50 (A498) was > 100 µM (inactive) and the GI50 (MOLT-4) was > 100 µM (inactive). The GI50 (ACHN) was > 100 µM (inactive), the GI50 (DU-145) was > 100 µM (inactive) and the GI50 (SK-MEL-5) was > 100 µM (inactive). For the same molecule, the GI50 (HCT-15) was greater than 100 µM, the GI50 (K562) was > 100 µM (inactive) and the GI50 (HOP-92) was > 100 µM (inactive). The GI50 (CAKI-1) was > 100 µM (inactive), the GI50 (SK-OV-3) was > 100 µM (inactive) and the GI50 (NCI-H460) was > 100 µM (inactive). For the same molecule, the GI50 (UACC-62) was > 100 µM (inactive), the GI50 (COLO 205) was > 100 µM (inactive) and the GI50 (HCT-116) was > 100 µM (inactive). The GI50 (MDA-N) was > 100 µM (inactive), the GI50 (NCI-H522) was > 100 µM (inactive) and the GI50 (NCI-H226) was > 100 µM (inactive). The GI50 (M14) was > 100 µM (inactive), the GI50 (MDA-MB-231) was > 100 µM (inactive) and the GI50 (SF-295) was > 100 µM (inactive). For the same molecule, the GI50 (HT-29) was > 100 µM (inactive), the GI50 (OVCAR-3) was > 100 µM (inactive) and the GI50 (BT-549) was > 100 µM (inactive). The GI50 (MCF7) was > 100 µM (inactive), the GI50 (NCI-H23) was > 100 µM (inactive) and the GI50 (SF-539) was > 100 µM (inactive). For the same molecule, the GI50 (Malme-3M) was > 100 µM (inactive), the GI50 (LOX IMVI) was > 100 µM (inactive) and the GI50 (786-0) was > 100 µM (inactive). The GI50 (A549) was > 100 µM (inactive), the GI50 (SR) was > 100 µM (inactive) and the GI50 (HOP-62) was > 100 µM (inactive). The GI50 (SNB-75) was > 100 µM (inactive), the GI50 (OVCAR-8) was > 100 µM (inactive) and the GI50 (CCRF-CEM) was > 100 µM (inactive). For the same molecule, the GI50 (PC-3) was > 100 µM (inactive), the GI50 (KM12) was > 100 µM (inactive) and the GI50 (EKVX) was > 100 µM (inactive). For the same molecule, the GI50 (HL-60) was > 100 µM (inactive), the GI50 (RPMI-8226) was > 100 µM (inactive) and the GI50 (TK-10) was > 100 µM (inactive). The GI50 (HCC 2998) was > 100 µM (inactive).
